Laboratory results from patent US20230219995A1, “FLUORESCENT CYTOSINE ANALOGUES AND THEIR APPLICATION IN TRANSCRIPTION AND TRANSLATION” (STEALTH LABELS BIOTECH AB, priority 2020, published 2023).

Experiments:
SP6 RNA polymerase = target: T1, SP6 RNA polymerase (Enterobacteria phage SP6, UniProt P06221); assay: Cell-free in vitro transcription with SP6 RNA polymerase (tC^O TP/CTP ratios 0-100%); type: biochemical, bacteriophage; conditions: tC^O TP/canonical CTP ratios 0 to 100%, agarose bleach gel
T1 construct: purchased Thermo Scientific
T1 sequence (P06221 1-874): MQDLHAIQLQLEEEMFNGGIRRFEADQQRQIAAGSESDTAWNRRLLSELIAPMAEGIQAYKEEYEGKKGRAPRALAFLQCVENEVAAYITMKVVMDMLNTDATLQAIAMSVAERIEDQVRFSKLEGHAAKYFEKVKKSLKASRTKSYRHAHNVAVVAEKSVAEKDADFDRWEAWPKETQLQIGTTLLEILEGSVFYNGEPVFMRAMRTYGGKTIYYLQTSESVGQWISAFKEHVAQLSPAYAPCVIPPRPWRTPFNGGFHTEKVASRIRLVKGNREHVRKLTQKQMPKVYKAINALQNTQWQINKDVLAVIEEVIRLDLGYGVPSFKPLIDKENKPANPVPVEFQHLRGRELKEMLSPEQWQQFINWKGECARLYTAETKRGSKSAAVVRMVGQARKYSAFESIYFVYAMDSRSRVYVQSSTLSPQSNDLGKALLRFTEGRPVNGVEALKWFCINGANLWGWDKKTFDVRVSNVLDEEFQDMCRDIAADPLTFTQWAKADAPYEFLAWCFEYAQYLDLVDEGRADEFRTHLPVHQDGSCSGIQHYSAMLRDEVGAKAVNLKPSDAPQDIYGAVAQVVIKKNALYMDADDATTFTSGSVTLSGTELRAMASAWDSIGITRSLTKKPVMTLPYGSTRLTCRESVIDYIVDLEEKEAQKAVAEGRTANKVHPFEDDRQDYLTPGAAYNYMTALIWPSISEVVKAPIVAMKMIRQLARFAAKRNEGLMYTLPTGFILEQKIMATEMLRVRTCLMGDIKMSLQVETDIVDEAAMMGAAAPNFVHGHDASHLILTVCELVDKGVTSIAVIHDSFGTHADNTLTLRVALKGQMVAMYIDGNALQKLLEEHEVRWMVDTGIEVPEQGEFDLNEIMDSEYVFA

T7 RNA polymerase = target: T2, T7 RNA polymerase (Escherichia phage T7, UniProt P00573); assay: Cell-free in vitro transcription with T7 RNA polymerase (tC^O TP/CTP ratios 0-100%); type: biochemical, bacteriophage
T2 construct: purchased Thermo Scientific

[1] = Steady state absorption, emission and fluorescence quantum yield of tC^O-modified RNA transcripts; type: physicochemical; conditions: free triphosphate
Procedure: A spectroscopic approach was used to quantify the incorporation efficiency of tC^O TP, compared to the canonical CTP. To enable this, all RNA transcripts were purified using a Monarch RNA Cleanup kit, ensuring complete removal of unreacted tC^O TP.
The tC^O-RNA products from the cell-free transcription reactions (prior to polyadenylation and capping, see Methods: Bio for details) were measured as received, i.e. in RNAse free Milli Q water. All measurements were carried out at room temperature (ca. 22° C.) in a 3.0 mm path length quartz cuvette, with a sample volume of ca. 60 μL.
Absorption spectra were recorded on a Cary 5000 (Varian Technologies) spectrophotometer with a wavelength interval of 1.0 nm, integration time of 0.1 s, and a spectral band width (SBW) of 1 nm. All spectra were baseline corrected by subtracting the corresponding absorption from the solvent only. A second-order polynomial Savitzky-Golay (five points) smoothing filter was applied to all spectra. […]
Emission spectra were recorded on a SPEX Fluorolog (Jobin Yvon Horiba) fluorimeter with excitation at 356 nm. […]
Sample fluorescence quantum yields (ΦF) were determined relative to a solution of quinine sulphate (Sigma) in 0.5 M H2SO4 (ΦF,REF=0.546) and calculated according to equation S2. […]

T2 sequence (P00573 whole entry): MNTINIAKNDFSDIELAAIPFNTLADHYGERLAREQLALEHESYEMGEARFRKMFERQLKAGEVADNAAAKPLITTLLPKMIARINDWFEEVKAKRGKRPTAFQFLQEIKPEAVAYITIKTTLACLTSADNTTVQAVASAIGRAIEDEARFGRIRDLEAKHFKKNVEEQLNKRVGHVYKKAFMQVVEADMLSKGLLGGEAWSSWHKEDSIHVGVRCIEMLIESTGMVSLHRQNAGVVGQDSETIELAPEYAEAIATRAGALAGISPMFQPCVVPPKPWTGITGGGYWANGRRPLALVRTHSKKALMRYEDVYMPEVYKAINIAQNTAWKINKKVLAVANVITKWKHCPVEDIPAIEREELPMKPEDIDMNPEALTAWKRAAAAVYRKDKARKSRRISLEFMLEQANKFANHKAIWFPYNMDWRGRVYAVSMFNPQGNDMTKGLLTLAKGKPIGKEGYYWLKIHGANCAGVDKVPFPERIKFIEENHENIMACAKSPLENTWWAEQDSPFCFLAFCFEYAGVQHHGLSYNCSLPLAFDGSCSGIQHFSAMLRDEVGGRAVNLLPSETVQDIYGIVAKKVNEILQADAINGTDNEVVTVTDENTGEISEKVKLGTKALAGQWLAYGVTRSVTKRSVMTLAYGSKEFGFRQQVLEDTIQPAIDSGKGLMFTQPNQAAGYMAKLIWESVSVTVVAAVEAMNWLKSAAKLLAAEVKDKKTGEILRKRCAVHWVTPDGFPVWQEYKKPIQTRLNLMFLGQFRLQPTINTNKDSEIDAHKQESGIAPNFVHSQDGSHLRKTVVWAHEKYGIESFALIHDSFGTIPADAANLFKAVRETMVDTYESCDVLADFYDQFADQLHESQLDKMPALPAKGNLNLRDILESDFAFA

((2R,3S,4R,5R)-3,4-dihydroxy-5-(2-oxo-2,10-dihydro-3H-benzo[b]pyrimido[4,5-e][1,4]oxazin-3-yl)tetrahydrofuran-2-yl)methyl triphosphate [tC^O TP]
transcription and tC^O incorporation into full-length H2B:GFP mRNA (SP6 RNA polymerase): Efficient transcription and tC^O incorporation | kC/ktC^O, ratio of first-order rate constants for incorporation of CTP vs. tC^O TP (T7 RNA polymerase; calculated from absorption at 260 nm and 370 nm of purified transcripts): 0.96-1.4 | transcription and tC^O incorporation into full-length H2B:GFP mRNA (T7 RNA polymerase; tC^O TP/canonical CTP ratios 0 to 100%, agarose bleach gel): Efficient transcription and tC^O incorporation | tC^O-band absorption λmax [1]: 360 nm
